Assay results: patent publication US9686985B2, “Fungicide N-cycloalkyl-N-bicyclicmethylene-carboxamide derivatives” (BAYER INTELLECTUAL PROPERTY GMBH, priority 2012, dated 2017)

What was measured:
Uromyces appendiculatus = assay: Example F: in vivo preventive test on Uromyces appendiculatus (beans); conditions: table F, 100 ppm, evaluated 10 days after inoculation
Protocol: Example F: In Vivo Preventive Test on Uromyces appendiculatus (Beans) [table] To produce a suitable preparation of active compound, 1 part by weight of active compound is mixed with the stated amounts of solvent and emulsifier, and the concentrate is diluted with water to the desired concentration. To test for preventive activity, young plants are sprayed with the preparation of active compound at the stated rate of application. After the spray coating has dried on, the plants are inoculated with an aqueous spore suspension of the causal agent of bean rust (Uromyces appendiculatus) and then remain for 1 day in an incubation cabinet at approximately 20° C. and a relative atmospheric humidity of 100%. The plants are then placed in a greenhouse at approximately 21° C. and a relative atmospheric humidity of approximately 90%.

Septoria tritici = assay: Example K: in vivo preventive test on Septoria tritici (wheat); conditions: table K, 500 ppm, evaluated 21 days after inoculation
Protocol: Example K: In Vivo Preventive Test on Septoria tritici (Wheat) [table] To produce a suitable preparation of active compound, 1 part by weight of active compound or active compound combination is mixed with the stated amounts of solvent and emulsifier, and the concentrate is diluted with water to the desired concentration. To test for preventive activity, young plants are sprayed with the preparation of active compound or active compound combination at the stated rate of application. After the spray coating has been dried, the plants are sprayed with a spore suspension of […] The plants remain for 48 hours in an incubation cabinet at approximately 20° C. and a relative atmospheric humidity of approximately 100% and afterwards for 60 hours at approximately 15° C. in a translucent incubation cabinet at a relative atmospheric humidity of approximately 100%. The plants are placed in the greenhouse at a temperature of approximately 15° C. and a relative atmospheric humidity of approximately 80%.

Q: `Cn1nc(C(F)F)c(C(=O)N(CC2CC(C)(C)Oc3ccccc32)C2CC2)c1F` (stereo not shown) [I.33] was tested. Which Efficacy (Uromyces appendiculatus) did it give?
A: The Efficacy was 100%.

Q: What about the Efficacy (Septoria tritici) of the same compound?
A: The Efficacy was 100%.

Q: With `CC(C1CCCc2ccccc21)N(C(=O)c1c(C(F)F)nn(C)c1F)C1CC1` (stereo not shown) [I.23] as the compound, how does the Efficacy (Uromyces appendiculatus) read?
A: Its Efficacy is 96%.

Q: And the Efficacy (Septoria tritici)?
A: Its Efficacy is 100%.
